Values of other authors as cited in patent US8680270B2, “Metallo-oxidoreductase inhibitors using metal binding moieties in combination with targeting moieties” (Viamet Pharmaceuticals, Inc., priority 2006, dated 2014).
Where two headings read alike, the source gives them in different places.

Columns and labels:
[1] = system: androgen-dependent Dunning-H tumor; conditions: 120 mg/100 gm food, equivalent to 100 mg/kg per day
[2] = system: androgen-independent, anaplastic AT-6 tumors; conditions: 120 mg/100 gm food, equivalent to 100 mg/kg per day
Plasmodium falciparum [3] = system: Plasmodium falciparum
Plasmodium falciparum [4] = system: Plasmodium falciparum; remark: listed apart in the source
sGC = target: T1, sGC (Homo sapiens, UniProt Q02153); parameters: dose or concentration left out as unconfirmed; conditions: broken cell preparations
T1 sequence (Q02153 1-619): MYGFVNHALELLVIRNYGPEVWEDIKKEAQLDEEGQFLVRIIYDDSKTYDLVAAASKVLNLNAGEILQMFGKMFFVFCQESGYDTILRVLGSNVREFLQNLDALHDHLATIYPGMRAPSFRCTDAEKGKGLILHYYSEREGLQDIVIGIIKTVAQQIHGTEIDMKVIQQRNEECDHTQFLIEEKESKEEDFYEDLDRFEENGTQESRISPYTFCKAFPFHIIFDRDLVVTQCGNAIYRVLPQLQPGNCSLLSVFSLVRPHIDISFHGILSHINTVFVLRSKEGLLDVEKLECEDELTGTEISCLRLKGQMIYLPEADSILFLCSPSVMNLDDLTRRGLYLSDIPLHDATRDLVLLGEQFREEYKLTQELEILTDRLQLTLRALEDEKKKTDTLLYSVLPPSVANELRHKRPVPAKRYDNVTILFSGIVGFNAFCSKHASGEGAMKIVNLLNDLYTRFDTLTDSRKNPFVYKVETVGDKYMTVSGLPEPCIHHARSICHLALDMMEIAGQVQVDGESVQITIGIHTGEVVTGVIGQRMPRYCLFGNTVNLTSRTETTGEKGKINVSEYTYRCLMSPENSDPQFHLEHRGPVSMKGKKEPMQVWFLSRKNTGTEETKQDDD
T1 sequence (Q02108 1-690 partner): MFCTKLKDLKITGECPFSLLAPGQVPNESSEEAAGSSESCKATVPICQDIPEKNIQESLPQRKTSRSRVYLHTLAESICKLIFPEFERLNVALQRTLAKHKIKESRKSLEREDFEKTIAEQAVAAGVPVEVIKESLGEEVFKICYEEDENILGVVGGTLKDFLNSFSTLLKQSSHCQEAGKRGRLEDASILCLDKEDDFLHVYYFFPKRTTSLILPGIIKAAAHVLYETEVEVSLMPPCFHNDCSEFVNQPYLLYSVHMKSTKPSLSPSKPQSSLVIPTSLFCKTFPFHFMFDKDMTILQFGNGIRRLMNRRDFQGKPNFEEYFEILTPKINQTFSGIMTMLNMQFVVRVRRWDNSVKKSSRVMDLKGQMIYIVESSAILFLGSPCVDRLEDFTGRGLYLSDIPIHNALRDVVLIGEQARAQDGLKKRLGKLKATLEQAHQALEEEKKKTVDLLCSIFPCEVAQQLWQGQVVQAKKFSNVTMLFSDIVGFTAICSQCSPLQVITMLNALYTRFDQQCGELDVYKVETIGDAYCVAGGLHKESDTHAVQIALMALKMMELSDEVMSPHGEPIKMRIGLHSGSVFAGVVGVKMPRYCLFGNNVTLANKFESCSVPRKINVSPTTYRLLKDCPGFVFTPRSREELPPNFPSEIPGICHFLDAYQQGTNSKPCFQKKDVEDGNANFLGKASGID

HO (heme oxygenase) = system: HO (heme oxygenase); parameters: dose or concentration left out as unconfirmed; conditions: broken cell preparations
NOS = system: NOS; parameters: dose or concentration left out as unconfirmed; conditions: broken cell preparations

Clc1cccc(C(c2ccc3[nH]cnc3c2)n2ccnc2)c1 (stereo not shown) [Liarozole]
Median tumor volume decrease [1]: 60% | Reduction of tumor growth [2]: −73%

O=CN(O)CCCP(=O)(O)O [fosmidomycin]
Cure rate by day 14 (Plasmodium falciparum [3]; 1.2 g every 8 h for 3 days, six of ten): 60% | Cure rate by day 14 (Plasmodium falciparum [3]; 1.2 g every 8 h for 4 days, seven of eight): 88% | Cure rate by day 14 (Plasmodium falciparum [3]; 1.2 g every 8 h for 5 days, eight of nine): 89% | Tolerability (Plasmodium falciparum [3]; all treatment regimens, 1.2 g every 8 h for 5, 4 or 3 days): well tolerated | Subjects cured on day 28 (Plasmodium falciparum [4]; Gabon, seven out of nine subjects): 78% | Subjects cured on day 28 (Plasmodium falciparum [4]; Thailand, two out of nine subjects): 22% | Clinical and parasitological cure on day 7 (primary end point) (Plasmodium falciparum [4]; oral 1,200 mg every 8 h for 7 days): All subjects were clinically and parasitologically cured | Tolerability (Plasmodium falciparum [4]; oral 1,200 mg every 8 h for 7 days, mild gastrointestinal side effects in five subjects): well tolerated

chromium mesoporphyrin IX [CrMP]
Effect on sGC (sGC): little or no effect | Inhibition of HO (HO (heme oxygenase)): 90% | Effect on NOS (NOS): little or no effect
